Here are results for three molecules from EP0481744B1, “Piperazine derivatives” (JOHN WYETH & BROTHER LIMITED, priority 1990, dated 1992).

What is called IC50 is the point on the concentration scale where inhibition reaches its midpoint.

Test [1] concerns the target T1, 5HT1A receptor (Rattus norvegicus, UniProt P19327).
T1 sequence (P19327 1-422): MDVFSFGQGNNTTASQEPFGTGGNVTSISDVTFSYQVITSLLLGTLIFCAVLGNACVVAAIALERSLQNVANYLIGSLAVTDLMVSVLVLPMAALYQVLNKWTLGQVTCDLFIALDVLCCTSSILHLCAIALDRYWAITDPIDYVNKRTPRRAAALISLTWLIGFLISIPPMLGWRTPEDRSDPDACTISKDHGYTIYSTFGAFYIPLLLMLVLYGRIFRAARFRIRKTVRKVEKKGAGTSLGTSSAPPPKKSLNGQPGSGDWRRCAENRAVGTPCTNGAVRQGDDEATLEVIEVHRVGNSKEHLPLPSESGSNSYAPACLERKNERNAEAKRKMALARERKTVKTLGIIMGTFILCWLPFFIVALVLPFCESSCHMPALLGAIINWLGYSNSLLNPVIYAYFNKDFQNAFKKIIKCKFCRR
The experiment in a line: 5-HT1A receptor binding activity in rat hippocampal membrane homogenate. Also noted: rat hippocampal membrane homogenate; from tissue; host or cells: rat hippocampus (membrane homogenate). As to the method:
The compounds of the invention were tested for 5-HT1A receptor binding activity in rat hippocampal membrane homogenate by the method of B S Alexander and M D Wood, J Pharm Pharmacol, 1988, 40, 888-891.

Test [2] addresses T1, 5HT1A receptor. In words: 5HT1A receptor antagonism: antagonism of 8-OH DPAT syndrome in the rat. In kind it is in vivo. Details: (8-OH DPAT) syndrome in the rat; from tissue; host or cells: whole animal (rat), in vivo. The following applies: antagonism of 8-hydroxy-2-(di-n-propylamino)-tetralin (8-OH DPAT) syndrome in the rat; s.c. As to the method:
The compounds were also tested for 5HT1A receptor antagonism activity in a test involving the antagonism of 8-hydroxy-2-(di-n-propylamino)-tetralin (8-OH DPAT) syndrome in the rat. The results are given below

Test [3] concerns mouse exploratory activity. In words: Potential anxiolytic activity: mouse exploratory activity in a two-compartment light/dark box. In kind it is in vivo. The settings on record: s.c. As to the method: The compounds were also tested for potential anxiolytic activity by a test procedure measuring mouse exploratory activity in a two-compartment light/dark box based upon the procedure of B Costall et al, Neuropharmacology, 1987, 26, 195-200 and J.N. Crawley et al, Pharmac. Biochem. Behav. 1980, 13, 167-170. The results are given below

`COc1ccccc1N1CCN(CCC(C(=O)N2CCCCCC2)c2ccccc2)CC1` (single isomer, unassigned) [Compound C, 2,3,4,5,6,7-Hexahydro-1-⁅4-[1-[4-(2-methoxyphenyl)-piperazinyl]]-2-phenylbutyryl⁆-1H-azepine] yielded an IC50 in test [1] of 1 nM.

Take `COc1ccccc1N1CCN(CC(C(=O)N2CCCCCC2)c2ccccc2)CC1` (stereo not drawn) [Compound B, 2,3,4,5,6,7-hexahydro-1-⁅3-⁅1-[4-(2-methoxyphenyl)piperazinyl]⁆-2-phenylpropionyl⁆-1H-azepine, reference compound]: the values for the MED in test [2] and in test [3] were 0.3 mg/kg; s.c and 1 mg/kg; s.c, respectively.

In the case of `COc1ccccc1N1CCN(CCC(C(=O)N2CCCCCC2)c2ccccc2)CC1` (stereo not drawn) [Compound A, 2,3,4,5,6,7-hexahydro-1-{4-[1-[4-(2-methoxyphenyl)-piperazinyl]]-2-phenylbutyryl}-1H-azepine], the MED in test [2] and in test [3] was 0.03 mg/kg; s.c each time. The IC50 in test [1] stood at 3 nM.
